Experimental data taken from patent US20220288052A1, “COMPOUND FOR COMBINATION TREATMENT” (priority 2019, published 2022).
Where two headings read alike, the source gives them in different places.

Columns and labels:
[1] = Exposure and tissue distribution after 14 days repeat dosing, rat; format: in vivo; settings: for concentration at 2 h / Kp at 2 h: rat, sc, 2 h post last dose
Description: Single time point data is available from two 14 days repeat dose studies in mice and rats dosed to both sexes. The three low doses were performed together as one study and the top dose was performed at another occasion as a satellite study.
Samples were taken 2 h post last dose.
Plasma, brain and liver were taken 2 h post last dose.

[2] = Bioavailability study in rat
[3] = Tissue distribution after single dose, rat; format: in vivo; settings: sc; for AUC(0-t): male, Wistar, rat 5 mg/kg s.c., read-out: AUC(0-24 h); for half-life: rat, male Wistar rats 5 mg/kg s.c., read-out: T½ (converted)
Description: Compound (I) was dosed to male Wistar rats 5 mg/kg s.c. Plasma was taken 0.5, 1, 2, 4, 6 and 24 post dose. Brain, liver and lung were taken 1, 4 and 24 hours post dose.
The plasma profile was again essentially the same as for the single dose study showing the same T½ of 0.8 h. AUC and T½ were calculated for plasma and organs, even though the data are very sparse for the organs.

NA transporter [4] = target: NA transporter (Homo sapiens, UniProt P23975); assay: ^3H-uptake human, NA transporter; format: biochemical
Excerpt: (§1) Compound (I) has been characterized as a monoamine reuptake inhibitor, based on the profile in a series of functional assays (Table 2).

[5] = Metabolic stability in liver microsomes, minipig; format: in vitro ADME
Description: The metabolic stability of compound (I) was tested in liver microsomes from all in house available species at 1 and 5 μM. One metabolite of 16 mass units higher than parent, was found in all incubations, except with human liver microsomes.

CYP 2D6 = CYP 2D6 (Homo sapiens, UniProt P10635); assay: CYP450 inhibition, cocktail of selective substrates, 2D6; format: in vitro ADME; settings: CYP 2D6, Bufuralol to 1′-hydroxybufuralol; read-out: IC50 of compound (I)
Description: Compound (I) was tested for CYP450 inhibition using a cocktail of selective substrates. […] This might be addressed later in a clinical study.

NA transporter [6] = target: NA transporter (Rattus norvegicus, UniProt Q63380); assay: ^3H-Nisoxetine binding, rat
Excerpt: as §1

plasma protein = assay: Plasma protein binding by equilibrium dialysis, mouse; format: in vitro ADME
Description: The plasma protein binding was tested in rat, mouse, dog and human plasma by equilibrium dialysis. The plasma protein binding of this compound is remarkably low (Table 24).

5-HT transporter = 5-HT transporter (Homo sapiens, UniProt P31645); assay: ^3H-Citalopram binding, human
Excerpt: as §1

anesthetized rats = assay: Induction of erection in anesthetized rats (intracavernous pressure); format: in vivo, rat
Description: FIG. 25: Average spontaneous increases in (A) intracavernous pressure, (B) duration and (C) frequency of these events after infusion of the compound (I) (1 mg/kg) in young (6 week old male Wistar rats) and old (14-16 week old male rats) rats. Results are means±s.e. mean.
FIG. 26: Average rises in number of spontaneous erections measured as intracavernous pressure (ICP) after infusion of, respectively, 0.001 mg/kg, 0.01 mg/kg, 0.1 mg/kg, and 1 mg/kg compound (I) in anesthetized rats (n=4-6).
FIG. 27: Average effect of (A) vehicle (n=5), and compound (I) on mean arterial pressure (MAP) and erectile response measured as peak intracavernous pressure (PICP) over MAP (PICP/MAP) in anesthetized (B) 6 week old male Wistar rats (n=6), and (C) 14-16 week old male rats (n=6). Vehicle and compound (I) were administered after establishing the maximal (10 Hz, 1 ms, 6 V) and submaximal (submax) responses (10 Hz, 1 ms, 0.6-1.55 V) to cavernous nerve stimulation for 30 s. Submaximal stimulation was repeated 3, 13, 23, and 33 min after drug or vehicle administration. Upper traces show the mean arterial pressure (MAP), bars represent the erectile response ((PICP/MAP)·100), where PICP is the peak intracavernous pressure. […]
Compound (I) was administered intravenously to rats in dosages of 0.001, 0.01, 0.1, and 1.0 mg/kg, and the number of spontaneous erections was measured. […]

NA transporter (Homo sapiens, UniProt P23975), sequence (P23975 whole entry): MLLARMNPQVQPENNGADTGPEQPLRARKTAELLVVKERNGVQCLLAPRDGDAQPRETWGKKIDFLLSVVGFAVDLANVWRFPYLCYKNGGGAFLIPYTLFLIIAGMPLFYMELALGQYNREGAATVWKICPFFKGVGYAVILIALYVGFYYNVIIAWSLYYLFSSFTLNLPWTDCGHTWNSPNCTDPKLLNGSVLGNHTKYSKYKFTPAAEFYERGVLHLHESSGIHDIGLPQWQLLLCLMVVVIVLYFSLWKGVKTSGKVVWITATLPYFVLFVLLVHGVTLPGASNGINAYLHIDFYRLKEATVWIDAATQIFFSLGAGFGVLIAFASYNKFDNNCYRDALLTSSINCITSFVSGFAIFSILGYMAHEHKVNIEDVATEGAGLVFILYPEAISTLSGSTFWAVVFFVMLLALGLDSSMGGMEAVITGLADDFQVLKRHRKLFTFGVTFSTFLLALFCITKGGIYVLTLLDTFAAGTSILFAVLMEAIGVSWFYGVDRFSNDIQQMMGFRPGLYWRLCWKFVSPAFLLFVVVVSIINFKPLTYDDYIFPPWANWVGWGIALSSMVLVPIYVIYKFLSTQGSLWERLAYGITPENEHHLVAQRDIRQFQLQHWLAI
CYP 2D6, sequence (P10635 whole entry): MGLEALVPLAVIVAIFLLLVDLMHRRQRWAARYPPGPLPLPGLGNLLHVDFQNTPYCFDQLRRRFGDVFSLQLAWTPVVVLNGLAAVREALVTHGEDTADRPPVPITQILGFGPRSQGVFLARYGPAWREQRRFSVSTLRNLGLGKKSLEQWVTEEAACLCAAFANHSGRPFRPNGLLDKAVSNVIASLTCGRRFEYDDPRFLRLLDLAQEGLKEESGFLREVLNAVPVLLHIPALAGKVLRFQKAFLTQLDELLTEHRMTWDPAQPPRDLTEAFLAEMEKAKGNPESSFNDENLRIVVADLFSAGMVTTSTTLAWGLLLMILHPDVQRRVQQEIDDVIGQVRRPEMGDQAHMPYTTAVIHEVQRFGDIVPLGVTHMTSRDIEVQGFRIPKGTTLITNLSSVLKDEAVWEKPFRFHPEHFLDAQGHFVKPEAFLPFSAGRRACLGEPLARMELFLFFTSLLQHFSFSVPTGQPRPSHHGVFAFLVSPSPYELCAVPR
5-HT transporter, sequence (P31645 whole entry): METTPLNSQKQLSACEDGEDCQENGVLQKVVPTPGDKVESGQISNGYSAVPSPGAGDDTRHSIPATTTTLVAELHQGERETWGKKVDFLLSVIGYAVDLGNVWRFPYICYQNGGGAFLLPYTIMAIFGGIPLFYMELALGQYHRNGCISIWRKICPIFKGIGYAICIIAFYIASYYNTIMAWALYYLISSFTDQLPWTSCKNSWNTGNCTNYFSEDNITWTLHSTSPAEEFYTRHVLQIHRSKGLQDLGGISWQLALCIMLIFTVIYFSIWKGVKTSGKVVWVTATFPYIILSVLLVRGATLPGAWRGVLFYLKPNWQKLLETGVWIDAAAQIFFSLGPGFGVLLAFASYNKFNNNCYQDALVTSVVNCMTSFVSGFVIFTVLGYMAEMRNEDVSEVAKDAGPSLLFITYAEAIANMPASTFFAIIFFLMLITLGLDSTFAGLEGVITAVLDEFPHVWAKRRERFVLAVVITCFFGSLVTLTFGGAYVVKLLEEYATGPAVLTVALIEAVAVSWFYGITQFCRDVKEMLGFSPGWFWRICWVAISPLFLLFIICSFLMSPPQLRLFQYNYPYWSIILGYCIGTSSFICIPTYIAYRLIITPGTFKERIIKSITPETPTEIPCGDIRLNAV
NA transporter (Rattus norvegicus, UniProt Q63380), sequence (Q63380 1-617): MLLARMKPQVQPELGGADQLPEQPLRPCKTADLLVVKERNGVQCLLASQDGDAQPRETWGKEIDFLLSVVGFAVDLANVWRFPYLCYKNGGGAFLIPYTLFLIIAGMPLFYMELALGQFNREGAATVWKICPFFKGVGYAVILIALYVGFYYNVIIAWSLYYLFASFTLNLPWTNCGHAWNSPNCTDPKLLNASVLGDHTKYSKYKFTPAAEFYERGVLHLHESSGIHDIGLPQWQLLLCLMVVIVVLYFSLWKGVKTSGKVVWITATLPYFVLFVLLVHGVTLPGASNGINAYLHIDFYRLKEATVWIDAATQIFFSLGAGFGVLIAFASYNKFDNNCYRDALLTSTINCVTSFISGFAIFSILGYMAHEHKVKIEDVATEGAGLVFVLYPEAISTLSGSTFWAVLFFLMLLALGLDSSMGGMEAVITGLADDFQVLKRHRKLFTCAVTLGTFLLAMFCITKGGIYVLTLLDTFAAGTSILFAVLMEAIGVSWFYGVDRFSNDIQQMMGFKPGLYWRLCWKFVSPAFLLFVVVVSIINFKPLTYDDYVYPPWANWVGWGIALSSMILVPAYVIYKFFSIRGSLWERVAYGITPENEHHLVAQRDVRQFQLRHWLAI

O=c1ccc2ccc(O[C@@H]3C[C@H]4CC[C@@H](C3)N4)cc2o1 [Compound (I), exo-7-(8-aza-bicyclo[3.2.1]oct-3-yloxy)-chromen-2-one]
concentration at 2 h ([1]; Wistar, brain, Female rats, 5 mg/kg s.c. 14 days, read-out: Brain concentration): 468 ng/g
concentration at 2 h ([1]; Wistar, brain, Female rats, 10 mg/kg s.c. 14 days, read-out: Brain concentration): 1020 ng/g
concentration at 2 h ([1]; Wistar, brain, Female rats, 15 mg/kg s.c. 14 days, read-out: Brain concentration): 1580 ng/g
concentration at 2 h ([1]; Wistar, brain, Female rats, 25 mg/kg s.c. 14 days, read-out: Brain concentration): 2080 ng/g
concentration at 2 h ([1]; Wistar, brain, Male rats, 5 mg/kg s.c. 14 days, read-out: Brain concentration): 519 ng/g
concentration at 2 h ([1]; Wistar, brain, Male rats, 10 mg/kg s.c. 14 days, read-out: Brain concentration): 1380 ng/g
concentration at 2 h ([1]; Wistar, brain, Male rats, 15 mg/kg s.c. 14 days, read-out: Brain concentration): 1950 ng/g
concentration at 2 h ([1]; Wistar, brain, Male rats, 25 mg/kg s.c. 14 days, read-out: Brain concentration): 2580 ng/g
Kp at 2 h ([1]; Wistar, brain/plasma, Female rats, 5 mg/kg s.c. 14 days, read-out: Brain/plasma ratio): 7
Kp at 2 h ([1]; Wistar, brain/plasma, Female rats, 10 mg/kg s.c. 14 days, read-out: Brain/plasma ratio): 7
Kp at 2 h ([1]; Wistar, brain/plasma, Female rats, 15 mg/kg s.c. 14 days, read-out: Brain/plasma ratio): 6
Kp at 2 h ([1]; Wistar, brain/plasma, Male rats, 5 mg/kg s.c. 14 days, read-out: Brain/plasma ratio): 7
Kp at 2 h ([1]; Wistar, brain/plasma, Male rats, 10 mg/kg s.c. 14 days, read-out: Brain/plasma ratio): 6
Kp at 2 h ([1]; Wistar, brain/plasma, Male rats, 15 mg/kg s.c. 14 days, read-out: Brain/plasma ratio): 5
Kp at 2 h ([1]; Wistar, in vivo, Female rats, 5 mg/kg s.c. 14 days, read-out: Liver/plasma ratio): 5
Kp at 2 h ([1]; Wistar, in vivo, Female rats, 10 mg/kg s.c. 14 days, read-out: Liver/plasma ratio): 5
Kp at 2 h ([1]; Wistar, in vivo, Female rats, 15 mg/kg s.c. 14 days, read-out: Liver/plasma ratio): 5
Kp at 2 h ([1]; Wistar, in vivo, Male rats, 5 mg/kg s.c. 14 days, read-out: Liver/plasma ratio): 3
Kp at 2 h ([1]; Wistar, in vivo, Male rats, 10 mg/kg s.c. 14 days, read-out: Liver/plasma ratio): 3
Kp at 2 h ([1]; Wistar, in vivo, Male rats, 15 mg/kg s.c. 14 days, read-out: Liver/plasma ratio): 2
concentration at 2 h ([1]; Wistar, liver, Female rats, 5 mg/kg s.c. 14 days, read-out: Liver concentration): 319 ng/g
concentration at 2 h ([1]; Wistar, liver, Female rats, 10 mg/kg s.c. 14 days, read-out: Liver concentration): 738 ng/g
concentration at 2 h ([1]; Wistar, liver, Female rats, 15 mg/kg s.c. 14 days, read-out: Liver concentration): 1520 ng/g
concentration at 2 h ([1]; Wistar, liver, Male rats, 5 mg/kg s.c. 14 days, read-out: Liver concentration): 259 ng/g
concentration at 2 h ([1]; Wistar, liver, Male rats, 10 mg/kg s.c. 14 days, read-out: Liver concentration): 737 ng/g
concentration at 2 h ([1]; Wistar, liver, Male rats, 15 mg/kg s.c. 14 days, read-out: Liver concentration): 921 ng/g
concentration at 2 h ([1]; Wistar, plasma, Female rats, 5 mg/kg s.c. 14 days, read-out: Plasma concentration): 67 ng/mL
concentration at 2 h ([1]; Wistar, plasma, Female rats, 10 mg/kg s.c. 14 days, read-out: Plasma concentration): 149 ng/mL
concentration at 2 h ([1]; Wistar, plasma, Female rats, 15 mg/kg s.c. 14 days, read-out: Plasma concentration): 281 ng/mL
concentration at 2 h ([1]; Wistar, plasma, Male rats, 5 mg/kg s.c. 14 days, read-out: Plasma concentration): 77 ng/mL
concentration at 2 h ([1]; Wistar, plasma, Male rats, 10 mg/kg s.c. 14 days, read-out: Plasma concentration): 242 ng/mL
concentration at 2 h ([1]; Wistar, plasma, Male rats, 15 mg/kg s.c. 14 days, read-out: Plasma concentration): 398 ng/mL
Kp at 2 h ([1]; brain/plasma, Female rats, 25 mg/kg s.c. 14 days, read-out: Brain/plasma ratio): 5
Kp at 2 h ([1]; brain/plasma, Male rats, 25 mg/kg s.c. 14 days, read-out: Brain/plasma ratio): 5
Kp at 2 h ([1]; in vivo, Female rats, 25 mg/kg s.c. 14 days, read-out: Liver/plasma ratio): 6
Kp at 2 h ([1]; in vivo, Male rats, 25 mg/kg s.c. 14 days, read-out: Liver/plasma ratio): 3
concentration at 2 h ([1]; liver, Female rats, 25 mg/kg s.c. 14 days, read-out: Liver concentration): 2310 ng/g
concentration at 2 h ([1]; liver, Male rats, 25 mg/kg s.c. 14 days, read-out: Liver concentration): 1560 ng/g
concentration at 2 h ([1]; plasma, Female rats, 25 mg/kg s.c. 14 days, read-out: Plasma concentration): 412 ng/mL
concentration at 2 h ([1]; plasma, Male rats, 25 mg/kg s.c. 14 days, read-out: Plasma concentration): 512 ng/mL
Linearity of kinetics after repeat dosing ([1]; rats, 5-25 mg/kg s.c. 14 days, 5% glucose): slight tendency to supra-linear kinetics
T½ i.v. ([2]; rat, 2.5 mg/kg i.v., 2.5 mg/kg): 0.6 h
Tolerability of i.v. dose ([2]; rats, 10 mg/kg i.v.): *Rats could not tolerate 10 mg/kg i.v. because of exaggerated dopaminergic effects.
AUC(0-t) ([3]; Brain): 3190 ng·h/mL
AUC(0-t) ([3]; Liver): 493 ng·h/mL
AUC(0-t) ([3]; Lung): 17600 ng·h/mL
AUC(0-t) ([3]; Plasma): 805 ng·h/mL
half-life ([3]; Brain): 3.6 h
half-life ([3]; Lung): 2.6 h
half-life ([3]; Plasma): 0.8 h
IC50 (NA transporter [4]): 0.046 µM
Ki (NA transporter [4]): 0.0501 µM
Human transporter ratio (NA transporter [4]; NA versus 5-HT): 26
Stability at 1 μM [5]: 88%
Stability at 5 μM [5]: 98%
IC50 (CYP 2D6): 44 µM
Ki (NA transporter [6]): 1.3 µM
fraction unbound at 2710 ng/ml (plasma protein): 0.747
Ki (5-HT transporter): 0.00024 µM
Induction of erection (anesthetized rats; 1 mg/kg): induce erection in both young and adult rats
Number of spontaneous erections versus dose (anesthetized rats; intravenously 0.001, 0.01, 0.1 and 1.0 mg/kg): increased with increasing dosage from 0.001 to 0.1 mg/kg, but decreased abruptly at a dose of 1.0 mg/kg
